# Measured values: patent US20190070159A1, “NOVEL PHARMACEUTICAL USES” (TAKEDA PHARMACEUTICAL COMPANY LIMITED, priority 2015, published 2019)
# Columns and labels:
# [1] = test system: GERD symptoms (heartburn and acid regurgitation); test: Clinical study in PPI partial responders (NERD and LA grade A EE), symptom diary; format: in vivo, human; conditions: TAK-438 20 mg QD or 40 mg QD for 4 weeks
# Procedure: A study is held to evaluate TAK-438 (20 mg QD and 40 mg QD) in subjects who have a history of heartburn-predominant GERD despite an adequate course of PPI treatment and who are then confirmed to have a partial response to a 4-week treatment course with a PPI (esomeprazole 40 mg QD).
# Subjects are eligible for participation in the study if they: • have a documented history of symptoms of both heartburn and acid regurgitation prior to entry into the study; • have a history of heartburn-predominant GERD despite an adequate course of PPI treatment; • continue to have symptoms of heartburn (with or without regurgitation) following 4 weeks treatment with a high dose of esomeprazole 40 mg QD; • have symptoms of heartburn (with or without regurgitation) which increase following a 2-week washout period compared with the prior 4 week course of high dose esomeprazole 40 mg QD.
# The subjects entered into the study are NERD and mild (LA grade A, as defined by the Los Angeles Classification) erosive esophagitis (EE). […]
# gastric acid secretion [2] = conditions: rats, versus the PPI lansoprazole; cited from earlier work
# erosive esophagitis (EE) = conditions: patients with erosive esophagitis; cited from earlier work
# [3] = Safety and tolerability, phase 3 study in PPI-resistant EE patients; format: in vivo, human; conditions: subjects with PPI-resistant EE of LA Grades A to D, 20 mg or 40 mg for 8 weeks
# Procedure: (§1) This was a phase 3, randomized, double-blind, parallel-group, multicenter study to evaluate the dose-response relationships of the acid-inhibitory effect and efficacy of TAK-438 (20 mg and 40 mg) in patients with PPI-resistant EE of LA Classification Grades A to D.
# A patient with PPI-resistant EE was defined as a patient who had EE of LA Classification Grades A to D endoscopically confirmed at the examination in the run-in period after receiving a regular or higher PPI dose for at least 8 weeks until immediately before the start of the run-in period. This study consisted of a 7- to 14-day run-in period and an 8-week treatment period. Subjects who entered the run-in period orally received 1 capsule of the PPI lansoprazole 30 mg once daily after breakfast for at least 7 days, but not more than 14 days. As a rule, subjects underwent endoscopic examination 2 days before the end of the run-in period, after receiving the study medication for the run-in period for at least 5 days. The acid-inhibitory effect of the study medication during the run-in period was evaluated by monitoring gastroesophageal pH for 24 hours, beginning from the day before the end of the run-in period. The subject was then randomized at a 1:1 ratio to receive either TAK-438 20 mg or 40 mg and entered the treatment period. […]
# [4] = test system: PPI-resistant EE of LA Classification Grades A to D; test: EE healing rate after 8-week treatment, phase 3 study in PPI-resistant EE patients; format: in vivo, human
# Procedure: as §1
# (§2) A patient with PPI-resistant EE was defined as a patient who had EE of LA Classification Grades A to D endoscopically confirmed at the examination in the run-in period after receiving a regular or higher PPI dose for at least 8 weeks until immediately before the start of the run-in period. This study consisted of a 7- to 14-day run-in period and an 8-week treatment period. Subjects who entered the run-in period orally received 1 capsule of the PPI lansoprazole 30 mg once daily after breakfast for at least 7 days, but not more than 14 days. As a rule, subjects underwent endoscopic examination 2 days before the end of the run-in period, after receiving the study medication for the run-in period for at least 5 days. The acid-inhibitory effect of the study medication during the run-in period was evaluated by monitoring gastroesophageal pH for 24 hours, beginning from the day before the end of the run-in period. The subject was then randomized at a 1:1 ratio to receive either TAK-438 20 mg or 40 mg and entered the treatment period. Subjects orally received the assigned medications once daily after breakfast for 8 weeks from the day after the end of the run-in period.
# Subject eligibility for this study required that the subject had received a regular or higher dose of PPI for EE treatment for at least 8 weeks until immediately before the start of the run-in period. In addition, the subject had EE for which a regular or higher dose of PPI had not been effective, or more specifically, the subject had EE of LA Classification Grades A to D endoscopically confirmed at the examination in the run-in period.
# The secondary endpoint was the EE healing rate after 8-week treatment with TAK-438.
# gastric acid secretion [5] = test: 24-hour gastroesophageal pH monitoring, phase 3 study in PPI-resistant EE patients; format: in vivo, human
# Procedure: as §1, §2
# Efficacy: The primary endpoint was the time course of gastroesophageal pH changes over 24 hours at steady state in the treatment period. The primary measure was gastric and esophageal pH 4 holding time ratios (HTRs). Other measures were gastric and esophageal pH 1, 2, 3, 5, 6, and 7 HTRs, mean gastric pH, and mean esophageal pH.
# pH holding time = conditions: cited from earlier work
# [6] = test system: non-erosive reflux disease (NERD); conditions: NERD patients, cited from earlier work
# [7] = TAK-438 20 mg once daily, after 2 weeks, subjects with PPI-resistant EE
# [8] = TAK-438 40 mg once daily, after 2 weeks, subjects with PPI-resistant EE
# [9] = both treatment groups (20 mg and 40 mg), after 2 weeks
structure (smiles),measurement,setting,value
"CNCc1cc(-c2ccccc2F)n(S(=O)(=O)c2cccnc2)c1.O=C(O)/C=C/C(=O)O [TAK-438, 1-[5-(2-fluorophenyl)-1-(pyridin-3-ylsulfonyl)-1H-pyrrol-3-yl]-N-methylmethanamine]",heartburn and/or regurgitation symptoms,[1],can reduce heartburn and/or regurgitation symptoms throughout the whole day and night
same,percentage of heartburn-free days and nights (24-hour periods),[1],can increase the percentage of heartburn-free days and nights
same,inhibitory action on gastric acid secretion compared with lansoprazole,gastric acid secretion [2],more potent and longer-lasting
same,efficacy in treatment of EE and maintenance of EE healing,erosive esophagitis (EE),effective for the treatment of EE and maintenance of EE healing
same,safety and tolerability,[3],"safe, and well tolerated"
same,EE healing rate after 8-week treatment,"[4]; TAK-438 20 mg group, 4 out of 9 subjects",44.4%
same,EE healing rate after 8-week treatment,"[4]; TAK-438 40 mg group, 5 out of 9 subjects",55.6%
same,overall efficacy,"[4]; subjects with PPI-resistant EE of LA Grades A to D, 20 mg or 40 mg",effective
same,mean 24-hour esophageal pH 4 HTR,gastric acid secretion [5]; [7],98.41%
same,mean 24-hour gastric pH 4 HTR,gastric acid secretion [5]; [7],96.46%
same,effect on gastric acid secretion,"gastric acid secretion [5]; TAK-438 20 mg or 40 mg, nighttime as well as daytime, subjects with PPI-resistant EE",suppressed gastric acid secretion
same,mean 24-hour esophageal pH 4 HTR,gastric acid secretion [5]; [8],99.86%
same,mean 24-hour gastric pH 4 HTR,gastric acid secretion [5]; [8],100.00%
same,"increases in gastric and esophageal pH 4 HTRs, 40 mg versus 20 mg group","gastric acid secretion [5]; after 2 weeks, differences between groups not statistically significant",greater in the TAK-438 40 mg group than in the TAK-438 20 mg group
same,"mean 24-hour esophageal pH 1, 2, 3, 6, and 7 HTRs, change from baseline",gastric acid secretion [5]; [9],remained almost unchanged
same,"mean 24-hour esophageal pH 5 HTR, change from baseline",gastric acid secretion [5]; [9],slightly increased
same,"mean 24-hour gastric pH 2, 3, 5, 6, and 7 HTRs, change from baseline",gastric acid secretion [5]; [9],increased from baseline
same,mean 24-hour gastric pH 1 HTR,"gastric acid secretion [5]; both treatment groups (20 mg and 40 mg), after 2 weeks of TAK-438, baseline also 100.00%",100.00%
same,"mean gastric pH, change from baseline","gastric acid secretion [5]; both treatment groups, 12-hour and 24-hour periods",increased from baseline
same,mean gastric pH 4 HTRs during daytime and nighttime,"gastric acid secretion [5]; both treatment groups, changes greater during nighttime than daytime",increased during both the daytime and nighttime with statistical significance
same,"mean esophageal pH, change from baseline","gastric acid secretion [5]; both treatment groups, lesser extent than mean gastric pH",also increased
same,significance of increase from baseline in 24-hour gastric pH 4 HTR,"gastric acid secretion [5]; both treatment groups, lower limits of 95% CI of mean changes greater than 0",statistically significant
same,significance of change from baseline in 24-hour esophageal pH 4 HTR,"gastric acid secretion [5]; either treatment group (20 mg, 40 mg)",not statistically significant
same,time to near maximal effect on pH holding time,"pH holding time; after dosing, maintained with chronic dosing",≤ 24 hours
same,onset of action,"pH holding time; after the first dose, single and multiple repeat-dosing studies",rapid onset of action after the first dose
Cc1cccc(C)c1CNc1cc(C(=O)NCCO)cn2c(C)c(C)nc12 [AZD0865],clinical benefit over esomeprazole in treatment of NERD symptoms,[6]; 4 weeks,did not provide clinical benefit over esomeprazole
same,duration of effect,[6],"prolonged, dose-dependent duration of effect"
same,inhibition of acid production,[6],rapid inhibition of acid production
